Experimental data from patent US20230069804A1, “METHODS AND COMPOSITIONS FOR MODULATING SPLICING” (SkyHawk Therapeutics, Inc., priority 2019, published 2023).
Like-named read-outs stand apart in the source and are kept apart here.

Legend:
MDR1 = test: MDCK-MDR1 permeability assay (BBB penetration potential); assay type: in vitro ADME; conditions: dog; for Papp A→B at 120 min, 5 μM / Papp B→A at 120 min, 5 μM: MDCK-MDR1, pH 7.4
Protocol: (§1) Each determination is performed in duplicate. […] Analytical conditions are outlined below.
(§2) Papp=(dCr/dt)×Vr/(A×CA) (1)

[1] = system: MDR1-MDCK cell monolayers; test: as above; assay type: in vitro ADME; conditions: 5 μM, 120 minutes; for MDCK-MDR1: % Recov A-B / MDCK-MDR1: % Recov B-A: pH 7.4
Protocol: as §1, §2

SMN protein = SMN protein assay (MSD) in SMA patient fibroblasts GM03813; assay type: cell-based; conditions: SMA patient fibroblasts GM03813, 48 hours
Protocol: Compounds were tested on spinal muscular atrophy (SMA) patient fibroblasts (GM03813, Coriell) at doses ranging from 2.5 μM to 0.6 nM. 7000 cells/well were seeded in 96-well plates. Compounds were incubated for 48 hours and the cells were lysed with 100 μL of lysis buffer. 20 μL of lysate was used for SMN protein measurement by Mesoscale Discovery (MSD) assay developed by PharmOptima (Michigan). A standard curve prepared with SMN protein ranging from 1 μg/ml to 19.5 pg/ml was used in each MSD plate to calculate the absolute SMN protein amount in each sample.

SMN2 = test: Quantitative splicing assay (SMN) in SMA patient fibroblasts GM03813; assay type: cell-based; conditions: Homo sapiens, Fibroblast, SMA patient fibroblasts GM03813, 24 h; for IC50: read-out: SMN2 Potency - Splicing: Splicing D7 IC50 (average); for EC50: read-out: SMN2 Potency - Splicing: Splicing FL EC50 (average)
Protocol: Spinal muscular atrophy (SMA) patient fibroblasts (GM03813, Coriell) are plated in 96-well plates at 50,000 cells/well. Immediately after plating, cells are dosed with compounds for 24 h at concentrations ranging from 2.5 μM to 0.6 nM (0.1% DMSO). Treated cells are lysed and cDNA synthesized using the Fast Advanced Cells-to-Ct kit (Thermofisher A35378) according to the manufacturer's instructions. 2 μL of each cDNA are used in qPCR reactions. The qPCR reactions are prepared in 384-well plates in 10 μL volume, using TaqMan™ Fast Advanced Master Mix (ThermoFisher; 4444965) with primers and probes shown in the table below. Reactions are run in a Quant Studio 6 qPCR instrument with default settings.
It is to be understood that the absolute stereochemistry for compounds of Table 3 is not determined.

[2] = MDCK-MDR1, pH 7.4, Papp (B-to-A)/Papp (A-to-B), read-out: MDCK-MDR1: Efflux
[3] = Fibroblast, 48 h, read-out: SMN2 Potency - Protein: Protein FL EC50 (average)

Row | Compound | efflux ratio at 120 min, 5 μM (MDR1; [2]) | Papp A→B at 120 min, 5 μM (MDR1; 5 μM, 120 minutes) [×10⁻⁶ cm/s] | Papp B→A at 120 min, 5 μM (MDR1; 5 μM, 120 minutes) [×10⁻⁶ cm/s] | MDCK-MDR1: % Recov A-B [1] [%] | MDCK-MDR1: % Recov B-A [1] [%] | EC50 (SMN protein; [3]) [nM] | IC50 (SMN2) [nM] | EC50 (SMN2) [nM] | efflux ratio at 120 min, 5 μM (MDR1; MDCK-MDR1, pH 7.4, Papp (B-to-A)/Papp (A-to-B), 5 μM, 120 minutes, separated enantiomers, told apart by chiral retention time, read-out: MDCK MDRP1 Efflux Ratio) | MDCK MDRP1 Efflux Ratio ([1]; Papp (B-to-A)/Papp (A-to-B), separated enantiomers, told apart by chiral retention time) | EC50 (SMN protein; Fibroblast, 48 h, separated enantiomers, told apart by chiral retention time, read-out: SMN EC50) [nM] | EC50 (SMN protein; separated enantiomers, told apart by chiral retention time, read-out: SMN EC50) [nM]
1 | CN(c1nnc(-c2ccc(-c3cnn(CF)c3)cc2O)s1)[C@@H]1C[C@H]2CC[C@H](N2)[C@@H]1F (single isomer, unassigned) [Compound E-10B] | 6 | 7.85 | 48.9 | 72 | 73 | 0.01 to 15 | 16 to 50 | 16 to 50 |  |  |  | 
2 | CN(c1nnc(-c2ccc(-c3ccn(C)c(=O)c3)cc2O)s1)[C@@H]1C[C@H]2CC[C@H](N2)[C@@H]1F (racemic) [4A/4B, 4-[4-(5-{[(1S,2S,3R)-2-fluoro-8-azabicyclo[3.2.1]octan-3-yl](methyl)amino}-1,3,4-thiadiazol-2-yl)-3-hydroxyphenyl]-1-methyl-1,2-dihydropyridin-2-one and 4-[4-(5-{[(2R,3S,5S)-2-fluoro-8-azabicyclo[3.2.1]octan-3-yl](methyl)amino}-1,3,4-thiadiazol-2-yl)-3-hydroxyphenyl]-1-methyl-1,2-dihydropyridin-2-one] |  |  |  |  |  |  |  |  | 54 | 40 | 51 to 100 | 101 to 500
3 | CN(c1nnc(-c2ccc(-c3cnn(C)c3)cc2O)s1)[C@H]1C[C@@H]2CCC[C@@H](N2)[C@H]1F [Compound E-1B, 2-(5-(((1R,2R,3S,5S)-2-fluoro-9-azabicyclo[3.3.1]nonan-3-yl)(methyl)amino)-1,3,4-thiadiazol-2-yl)-5-(1-methyl-1H-pyrazol-4-yl)phenol] | 4 | 5.53 | 20.4 | 53 | 68 | 0.01 to 15 | 0.01 to 15 | 16 to 50 |  |  |  | 
4 | CN(c1nnc(-c2ccc(-c3cnn(C)c3)cc2O)s1)[C@@H]1C[C@H]2CCC[C@H](N2)[C@@H]1F [Compound E-1A, 2-(5-(((1S,2S,3R,5R)-2-fluoro-9-azabicyclo[3.3.1]nonan-3-yl)(methyl)amino)-1,3,4-thiadiazol-2-yl)-5-(1-methyl-1H-pyrazol-4-yl)phenol] | 6 | 5.28 | 33.1 | 57 | 71 | 16 to 50 | 51 to 100 | 101 to 500 |  |  |  | 
5 | CN(c1nnc(-c2cc(F)c(-c3cn[nH]c3)cc2O)s1)[C@H]1C[C@@H]2CC[C@@H](N2)[C@H]1F (single isomer, unassigned) [Compound E-6B] | 12 | 3.16 | 39.3 | 62 | 76 | 0.01 to 15 | 0.01 to 15 | 16 to 50 |  |  |  | 
6 | CN(c1nnc(-c2ccc(-c3ccn(CF)c(=O)c3)cc2O)s1)[C@H]1C[C@@H]2CC[C@@H](N2)[C@H]1F (single isomer, unassigned) [Compound E-15B] | 66 | 0.98 | 64.8 | 88 | 97 | 16 to 50 | 51 to 100 | 101 to 500 |  |  |  | 
7 | COc1cc(-c2ccc(-c3nnc(N(C)[C@@H]4C[C@H]5CC[C@H](N5)[C@@H]4F)s3)c(O)c2)ncn1 (single isomer, unassigned) [Compound E-5A] | 2 | 7.8 | 19.1 | 41 | 61 | 16 to 50 | 51 to 100 | 51 to 100 |  |  |  | 
8 | COc1cc(-c2ccc(-c3nnc(N(C4CC4)[C@@H]4C[C@H]5CC[C@H](N5)[C@@H]4F)s3)c(O)c2)cc(F)n1 [Compound E-2A, 2-(5-(cyclopropyl((1S,2S,3R,5R)-2-fluoro-8-azabicyclo[3.2.1]octan-3-yl)amino)-1,3,4-thiadiazol-2-yl)-5-(2-fluoro-6-methoxypyridin-4-yl)phenol] | 6 | 2.07 | 12 | 19 | 45 | 0.01 to 15 | 0.01 to 15 | 16 to 50 |  |  |  | 
9 | CN(c1nnc(-c2ccc(-c3cnn(C)c3)cc2O)s1)[C@H]1C[C@@H]2CC[C@@H](N2)[C@H]1F [Compound E-3A, 2-(5-(((1R,2R,3S,5S)-2-fluoro-8-azabicyclo[3.2.1]octan-3-yl)(methyl)amino)-1,3,4-thiadiazol-2-yl)-5-(1-methyl-1H-pyrazol-4-yl)phenol] | 3 | 10.5 | 35.2 | 77 | 85 | 16 to 50 | 101 to 500 | 101 to 500 |  |  |  | 
10 | CN(c1nnc(-c2ccc(-c3cnn(C)c3)cc2O)s1)[C@@H]1C[C@H]2CC[C@H](N2)[C@@H]1F [Compound E-3B, 2-(5-(((1S,2S,3R,5R)-2-fluoro-8-azabicyclo[3.2.1]octan-3-yl)(methyl)amino)-1,3,4-thiadiazol-2-yl)-5-(1-methyl-1H-pyrazol-4-yl)phenol] | 5 | 11.2 | 51.1 | 80 | 89 | 0.01 to 15 | 0.01 to 15 | 16 to 50 |  |  |  | 
11 | CN(c1nnc(-c2ccc(-c3cn[nH]c3)cc2O)s1)[C@H]1C[C@@H]2CC[C@H]([C@H]1F)N2C (single isomer, unassigned) [Compound E-23A] | 9 | 4.65 | 41.2 | 78 | 90 | 101 to 500 | 501 to 10000 | 501 to 10000 |  |  |  | 
12 | CN(c1nnc(-c2ccc(-c3cn[nH]c3)cc2O)s1)[C@@H]1C[C@H]2CC[C@H](N2)[C@@H]1F (single isomer, unassigned) [Compound E-7B] | 12 | 4.76 | 56 | 79 | 91 | 0.01 to 15 | 0.01 to 15 | 0.01 to 15 |  |  |  | 
13 | CN(c1nnc(-c2cc(F)c(-c3cnn(C)c3)cc2O)s1)[C@@H]1C[C@H]2CC[C@H](N2)[C@@H]1F (single isomer, unassigned) [Compound E-9B] | 5 | 5.38 | 26 | 48 | 67 | 16 to 50 | 0.01 to 15 | 16 to 50 |  |  |  | 
14 | COc1cc(-c2ccc(-c3nnc(N(C4CC4)[C@H]4C[C@@H]5CC[C@@H](N5)[C@H]4F)s3)c(O)c2)cc(F)n1 [Compound E-2B, 2-(5-(cyclopropyl((1R,2R,3S,5S)-2-fluoro-8-azabicyclo[3.2.1]octan-3-yl)amino)-1,3,4-thiadiazol-2-yl)-5-(2-fluoro-6-methoxypyridin-4-yl)phenol] | 5 | 1.87 | 9.89 | 16 | 44 | 0.01 to 15 | 16 to 50 | 51 to 100 |  |  |  | 
15 | CN(c1nnc(-c2cc(F)c(-c3cnn(C)c3)cc2O)s1)[C@H]1C[C@@H]2CC[C@@H](N2)[C@H]1F (single isomer, unassigned) [Compound E-9A] | 6 | 5.87 | 36.3 | 51 | 68 | 51 to 100 | 51 to 100 | 101 to 500 |  |  |  | 
